Values of other authors as cited in patent publication US20090022826A1, “Multi-step method of pain and/or inflammation treatment” (priority 2007, published 2009).

What does the source list for `CCOCCOCCO` [Ethoxydiglycol, diethylene glycol monoethyl ether]?
solubility in alcohol (alcohol): soluble; solubility in mineral oil (mineral oil): insoluble; solubility in vegetable oil (vegetable oil): partially soluble; solubility in water (water): soluble
